The results in this text go back to patent US7416741B2, “Copper lowering treatment of inflammatory and fibrotic diseases” (The Regents of the University of Michigan, priority 2002, dated 2008).

In test [1] the test system is bleomycin mouse model of pulmonary fibrosis. The test is described as follows: Microscopic evaluation of the lungs (H&E, Masson-trichrome). In kind it is in vivo. From the text:
Microscopic evaluation of the lungs. For morphological evaluation of fibrosis, lungs were inflated with formalin at the time of sacrifice, and after overnight fixation were embedded in paraffin and sections prepared for H&E staining as well as for Masson-trichrome staining for evaluation of collagen deposition as previously described (M Gharaee-Kermani et al., J. Leukoc. Biol., 64:657-666 [1998]).

The next test concerns Cp. The test is described as follows: Serum Cp in the Con A mouse model. In kind it is in vivo. The settings on record: Ex 5 Exp 1; after fourth Con A injection. The source says:
Twenty-four hours after each of the first three injections, one mouse from each group was bled, and serum ALT measured. In this experiment, TM was started in the TM treated mice before the first Con A injection. After the fourth injection of Con A, all the mice were bled for ALT and Cp measurements and the experiment terminated. The Cp levels in TM treated mice were 25-50% of non-TM treated animals.

The test system of a further test is TNFα. The test is described as follows: Lung TNFα mRNA by real time RT-PCR, bleomycin model. In kind it is in vivo, mouse. The following applies: Ex 2 Exp 1; bleomycin/TM; day 7. The protocol: Cytokine assays. Expression of TNFα and TGFβ was determined in lung tissues from the various experiments. TNFα mRNA was measured in total RNA isolated from lung tissue homogenates. Primer Express 2.0 software (Applied Biosystems, Foster City, Calif.) was used to design Taqman primers and MGB probes (6-FAM conjugated) for TNFα, which were then purchased from Applied Biosystems (PE/ABI, Foster City, Calif.). Primers and probes for GAPDH were purchased from PE/ABI. GAPDH mRNA was used as internal control to normalize the amount of input RNA. One-step real time RT-PCR was undertaken with Taqman One Step RT-PCR Master Mix (PE/ABI) using a GeneAmp 5700 Sequence Detection System (PE/ABI). Results were expressed as the threshold cycle (CT) at which an increase of reporter fluorescence (ΔRn) can first be detected. The levels of TNFα mRNA were normalized to the internal control GAPDH signals and expressed as 2^−ΔΔCT.
A general note: In qPCR the cycle at which signal appears reflects the starting amount.

A further test relates to Lysyl oxidase. The test is described as follows: Lysyl oxidase in the lungs, bleomycin model. In kind it is in vivo, mouse. The following applies: Ex 2 Exp 1; TM treated vs non-TM treated animals.
For a further test, the system named is α-smooth muscle actin. The test is described as follows: α-Smooth muscle actin assay (ELISA) in lung homogenates. In kind it is in vivo, mouse. The settings on record: Ex 2 Exp 2; day 21; p=0.09. The protocol:
α-Smooth muscle actin assay. De novo appearance of myofibroblasts is a hallmark of active fibrosis, and these cells are known as the primary source of interstitial collagen in pulmonary fibrosis (See e.g., K Zhang et al., Am. J. Pathol, 145:114-125 [1994]). Since α-smooth muscle actin is a marker of myofibroblast differentiation, the level of this protein in lung tissue homogenates was measured by ELISA as before (use same reference above for TGFβ assay by ELISA).
For orientation: An ELISA detects its analyte on a solid surface through an enzyme-linked reagent.

`[SH-].[SH-].[S]=[Mo]=[S]` [TM, tetrathiomolybdate]: in test [1] (Ex 1 Exp 1, TM treated group vs bleomycin only), the “collagen deposition (Masson-trichrome)” value is given as “much less collagen deposition”. Besides, in test [1] (Ex 1 Exp 1, TM-treated bleomycin animals vs bleomycin alone), the “lung histopathology (H&E): patches of fibrosis and inflammatory cells” value was “substantially smaller with lesser degrees of cellular infiltration”. The “histopathological evaluation of fibrotic lesions” value in test [1] (Ex 1 Exp 2, increasing TM dose) is on record as “diminution of fibrotic lesion size with increasing dose of TM”. The “Cp levels in TM treated mice relative to non-TM treated animals” value in the test on Cp was 25-50%. The “lung TNFα mRNA levels, bleomycin-induced increase” value in the test with TNFα was “almost completely, and significantly, inhibited this increase”. In addition, in the test on Lysyl oxidase, the “lysyl oxidase activity in the lungs” value is “not inhibited”. Moreover, the “lung SMA (α-smooth muscle actin) protein levels, bleomycin-induced increase” value with α-smooth muscle actin was “inhibited most of the increase”.
